Measurements as given in patent publication US11578055B2, “Triazacyclododecansulfonamide (“TCD”)-based protein secretion inhibitors” (KEZAR LIFE SCIENCES, priority 2018, dated 2023).
Where two headings read alike, the source gives them in different places.

Experiments:
[1] = In Vitro Microsome Stability Assay (rat); assay type: in vitro ADME
In short: (§1)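 Species liver microsomes in potassium phosphate buffer were preincubated at 37 °C for 3–5 min with test compound (added from 0.25 mM DMSO stock), then started with NADPH. Samples at 0 and 30 min were quenched with acetonitrile containing internal standard and analysed by LC-MS/MS; % remaining at 30 min used analyte/IS AUC ratios relative to t=0.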

[2] = tested on: multiple myeloma cell line U266B1; assay: U266 Cell Viability Assay; assay type: cell-based, human; details: Homo sapiens, U-266, 48 hr
In short: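 Viability was measured by CellTiter-Glo luminescence after 48 h compound exposure at 37° C, 5% CO2. The cells were U266B1 multiple myeloma cells grown in RPMI 1640 plus 10% FBS. Where stereochemistry is not shown, values apply to the stereoisomer mixture.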

[3] = tested on: full length IL-2 (amino acids 1-153) fused to Gaussia Luciferase; assay: Dox Induced IL2-FL-Gluc Assay; assay type: cell-based; details: 24 hr, read-out: 24 hr Dox Inducible IL2FLGluc 293FRT/TO: Mean IC50
In short: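 Compounds in DMSO/media with doxycycline were added to cells plated the previous day and incubated at 37° C, 5% CO2. Cells: stable Flp-In 293 T-REx line, Dox-regulated expression of IL-2 (aa 1-153) fused at its C-terminus to Gaussia luciferase.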

[4] = In Vitro Microsome Stability Assay (mouse); assay type: in vitro ADME
In short: as §1

[5] = tested on: full length TNFα (amino acids 1-233) fused to Gaussia Luciferase; assay: Dox Induced TNFα-FL-Gluc Assay; assay type: cell-based; details: 24 hr, read-out: 24 hr Dox Inducible TNFaFLGluc 293FRT/TO: Mean IC50
In short: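 Compounds diluted in DMSO/medium with doxycycline were incubated at 37° C, 5% CO2 with 293 T-REx cells stably carrying a Tet-regulated TNFα(1-233)-Gaussia luciferase construct. Data for structures drawn without stereochemistry refer to stereoisomer mixtures.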

[6] = In Vitro Microsome Stability Assay (human); assay type: in vitro ADME
In short: as §1

[7] = tested on: multiple myeloma cell line NCl-H929; assay: H929 Cell Viability Assay; assay type: cell-based, human; details: Homo sapiens, NCI-H929, 48 h
In short: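 Viability was determined by CellTiter-Glo luminescence after a 48 h, 37 °C exposure of NCI-H929 cells to serial compound dilutions in medium containing 10% FBS. Where stereochemistry is not shown, values refer to a mix of stereoisomers.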

[8] = In Vitro Microsome Stability Assay (monkey); assay type: in vitro ADME
In short: as §1

[9] = tested on: PD1 signal sequence plus 10 amino acids fused to Gaussia Luciferase (PD1-ss+10aa/Gaussia Luciferase); assay: Dox Induced PD1-ss-Gluc Assay; assay type: cell-based; details: 24 hr, read-out: 24 hr Dox Inducible PD1ssGluc 293FRT/TO: Mean IC50
In short: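 Compound dilutions in DMSO/media containing doxycycline were applied to a stable, inducible 293 T-REx line carrying the luciferase fusion, then incubated at 37 °C, 5% CO2. Where stereochemistry is not drawn, values relate to isomer mixtures.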

[10] = U266, read-out: 48 hr U266 Viability Celltiter-Glo: Mean EC50
[11] = H929, read-out: 48 hr H929 Viability Celltiter-Glo: Mean EC50
[12] = rat liver microsomes, 30 min w/ NADPH
[13] = mouse liver microsomes, 30 min w/ NADPH
[14] = human liver microsomes, 30 min w/ NADPH
[15] = monkey liver microsomes, 30 min w/ NADPH

Compound | Liver Microsome Stability-% Left after 30 min w/ NADPH (%) Rat ([1]; rat, 30 min, NADPH) [%] | EC50 [2, 10] [nM] | IC50 ([3]; 293FRT/TO) [nM] | Liver Microsome Stability-% Left after 30 min w/ NADPH (%) Mouse ([4]; mouse, 30 min, NADPH) [%] | IC50 ([5]; 293FRT/TO) [nM] | Liver Microsome Stability-% Left after 30 min w/ NADPH (%) Human ([6]; human, 30 min, NADPH) [%] | EC50 [7, 11] [nM] | Liver Microsome Stability-% Left after 30 min w/ NADPH (%) Monkey ([8]; monkey, 30 min, NADPH) [%] | IC50 ([9]; 293FRT/TO) [nM] | Liver Microsome Stability-% Left after 30 min w/ NADPH (%) Rat [1, 12] [%] | EC50 ([2]; U266, Celltiter-Glo) [nM] | IC50 ([3]; Dox inducible, 293FRT/TO cells) [nM] | Liver Microsome Stability-% Left after 30 min w/ NADPH (%) Mouse [4, 13] [%] | IC50 ([5]; Dox inducible, 293FRT/TO cells) [nM] | Liver Microsome Stability-% Left after 30 min w/ NADPH (%) Human [6, 14] [%] | EC50 ([7]; H929, Celltiter-Glo) [nM] | Liver Microsome Stability-% Left after 30 min w/ NADPH (%) Monkey [8, 15] [%] | IC50 ([9]; Dox inducible, 293FRT/TO cells) [nM]
C[C@H]1CN(S(=O)(=O)c2ccc(N(C)C)cc2)CCCN(CC2CCCCC2)CCCN(S(=O)(=O)N2CCN(c3ccccc3F)CC2)C1 [A94, 4-{[(3S)-9-(cyclohexylmethyl)-5-{[4-(2-fluorophenyl)piperazin-1-yl]sulfonyl}-3-methyl-1,5,9-triazacyclododecan-1-yl]sulfonyl}-N,N-dimethylaniline] | 45.5 | > 25000 | 78.3 | 45.7 | 550 | 42.1 | 800 | 30.3 | 36.4 | – | – | – | – | – | – | – | – | –
Cc1cccc(N2CCN(S(=O)(=O)N3CCCN(CC4CCCCC4)CCCN(S(=O)(=O)c4ccc(N(C)C)cc4)C[C@H](C)C3)CC2)c1 [A98, 4-{[(3S)-9-(cyclohexylmethyl)-3-methyl-5-{[4-(3-methylphenyl)piperazin-1-yl]sulfonyl}-1,5,9-triazacyclododecan-1-yl]sulfonyl}-N,N-dimethylaniline] | 32.8 | > 25000 | 351 | 55.2 | 7340 | 57.5 | > 25000 | 26.9 | 202 | – | – | – | – | – | – | – | – | –
Cc1ccccc1N1CCN(S(=O)(=O)N2CCCN(CC3CCCCC3)CCCN(S(=O)(=O)c3ccc(N(C)C)cc3)C[C@H](C)C2)CC1 [A97, 4-{[(3S)-9-(cyclohexylmethyl)-3-methyl-5-{[4-(2-methylphenyl)piperazin-1-yl]sulfonyl}-1,5,9-triazacyclododecan-1-yl]sulfonyl}-N,N-dimethylaniline] | 71.4 | > 25000 | 87 | 77.7 | 566 | 71.1 | 726 | 66.1 | 41.8 | – | – | – | – | – | – | – | – | –
COc1ccccc1N1CCN(S(=O)(=O)N2CCCN(CC3CCCCC3)CCCN(S(=O)(=O)c3ccc(N(C)C)cc3)C[C@H](C)C2)CC1 [A154, 4-{[(3S)-9-(cyclohexylmethyl)-5-{[4-(2-methoxyphenyl)piperazin-1-yl]sulfonyl}-3-methyl-1,5,9-triazacyclododecan-1-yl]sulfonyl}-N,N-dimethylaniline] | – | – | – | – | – | – | – | – | – | 12.3 | > 25000 | 58.7 | 17.5 | 504 | 7.33 | 749 | 10.2 | 14.9
CO/N=C1/CN(S(=O)(=O)c2ccc(N(C)C)cc2)CCCN(CC2CCCCC2)CCCN(S(=O)(=O)N2CCC(c3ccccc3)CC2)C1 [A88, (3Z)-9-(cyclohexylmethyl)-1-[4-(dimethylamino)benzenesulfonyl]-N-methoxy-5-[(4-phenylpiperidin-1-yl)sulfonyl]-1,5,9-triazacyclododecan-3-imine] | 15.2 | > 25000 | > 25000 | 15.9 | > 25000 | 11.7 | > 25000 | 1.33 | 4330 | – | – | – | – | – | – | – | – | –

Continued, values first:

Liver Microsome Stability-% Left after 30 min w/ NADPH (%) Rat ([1]; rat, 30 min, NADPH) [%] | EC50 [2, 10] [nM] | IC50 ([3]; 293FRT/TO) [nM] | Liver Microsome Stability-% Left after 30 min w/ NADPH (%) Mouse ([4]; mouse, 30 min, NADPH) [%] | IC50 ([5]; 293FRT/TO) [nM] | Liver Microsome Stability-% Left after 30 min w/ NADPH (%) Human ([6]; human, 30 min, NADPH) [%] | EC50 [7, 11] [nM] | Liver Microsome Stability-% Left after 30 min w/ NADPH (%) Monkey ([8]; monkey, 30 min, NADPH) [%] | IC50 ([9]; 293FRT/TO) [nM] | Liver Microsome Stability-% Left after 30 min w/ NADPH (%) Rat [1, 12] [%] | EC50 ([2]; U266, Celltiter-Glo) [nM] | IC50 ([3]; Dox inducible, 293FRT/TO cells) [nM] | Liver Microsome Stability-% Left after 30 min w/ NADPH (%) Mouse [4, 13] [%] | IC50 ([5]; Dox inducible, 293FRT/TO cells) [nM] | Liver Microsome Stability-% Left after 30 min w/ NADPH (%) Human [6, 14] [%] | EC50 ([7]; H929, Celltiter-Glo) [nM] | Liver Microsome Stability-% Left after 30 min w/ NADPH (%) Monkey [8, 15] [%] | IC50 ([9]; Dox inducible, 293FRT/TO cells) [nM] | Compound
– | – | – | – | – | – | – | – | – | 72.3 | > 25000 | 826 | 58.4 | 13900 | 55.2 | > 25000 | 44.7 | 449 | C[C@@H]1CN(CC2CCCCC2)C[C@H](C)CN(S(=O)(=O)c2ccc(N(C)C)cc2)C[C@H](C)CN(S(=O)(=O)N2CCc3cc(Cl)ccc3C2)C1 [B16, 4-{[(3S,7R,11S)-5-[(6-chloro-1,2,3,4-tetrahydroisoquinolin-2-yl]sulfonyl]-9-(cyclohexylmethyl)-3,7,11-trimethyl-1,5,9-triazacyclododecan-1-yl]sulfonyl}-N,N-dimethylaniline]
– | – | – | – | – | – | – | – | – | 2.23 | > 25000 | 66.4 | 3.65 | 436 | 3.46 | 1750 | 2.63 | 29.2 | CC1Cc2ccccc2CN1S(=O)(=O)N1CCCN(CC2CCCCC2)CCCN(S(=O)(=O)c2ccc(N(C)C)cc2)C[C@H](C)C1 (stereo partly drawn) [A172, 4-{[(3S)-9-(cyclohexylmethyl)-3-methyl-5-[(3-methyl-1,2,3,4-tetrahydroisoquinolin-2-yl]sulfonyl]-1,5,9-triazacyclododecan-1-yl]sulfonyl}-N,N-dimethylaniline]
21.6 | 14700 | 377 | 25.4 | 2460 | 23.7 | 3010 | 21.8 | 193 | – | – | – | – | – | – | – | – | – | C[C@H]1CN(S(=O)(=O)c2ccc(N(C)C)cc2)CCCN(CC2CCCCC2)CCCN(S(=O)(=O)N2CC[C@H](c3ccccc3)C2)C1 [A91, 4-{[(3S)-9-(cyclohexylmethyl)-3-methyl-5-{[(3 R)-3-phenylpyrrolidin-1-yl]sulfonyl}-1,5,9-triazacyclododecan-1-yl]sulfonyl}-N,N-dimethylaniline]
– | – | – | – | – | – | – | – | – | 1.97 | > 25000 | 13800 | 0.44 | > 25000 | 0.80 | 20200 | 0.08 | 2740 | C[C@H]1CN(S(=O)(=O)c2ccc3oncc3c2)CCCN(CC2CCCCC2)CCCN(S(=O)(=O)N2CCc3cc(Cl)ccc3C2)C1 [A180]
– | – | – | – | – | – | – | – | – | 1.16 | > 25000 | > 25000 | 0.74 | > 25000 | 2.76 | > 25000 | 0.99 | 4120 | C[C@H]1CCN(S(=O)(=O)c2ccc(N(C)C)cc2)CCCN(CC2CCCCC2)CCCN1S(=O)(=O)N1CCc2cc(Cl)ccc2C1 [A147, 4-{[(4 S)-5-[(6-chloro-1,2,3,4-tetrahydroisoquinolin-2-yl)sulfonyl]-9-(cyclohexylmethyl)-4-methyl-1,5,9-triazacyclododecan-1-yl]sulfonyl}-N,N-dimethylaniline]
